Laboratory results taken from ChEMBL document CHEMBL1131682, “New photoaffinity analogs of paclitaxel” (1999).

What was measured:
Type in all cases: functional
[1] = system: HT-29; test: Inhibition of growth of human colon tumor cell line (HT-29) after 72 hr of drug exposure
[2] = system: A549; test: Inhibition of growth of human NSCL non small cell lung carcinoma cell line ([…]) after 72 hr of drug exposure
[3] = system: MCF7R; test: Inhibition the growth of doxorubicin resistant human breast tumor cell line (MCF-7-R) after 72 hr of drug exposure
[4] = system: A121; test: Inhibition of growth of human ovarian tumor cell line (A121) after 72 hr of drug exposure
[5] = system: MCF7; test: Inhibition of the growth of human breast tumor cell line (MCF-7) after 72 hr of drug exposure

Compound | Inhibition [1] | Inhibition [2] | IC50 [3] | Inhibition [4] | Inhibition [5]
CC(=O)O[C@H]1C(=O)[C@@]2(C)[C@H]([C@H](OC(=O)c3ccccc3)[C@]3(O)C[C@H](OC(=O)[C@H](O)[C@@H](NC(=O)c4ccccc4)c4ccccc4)C(C)=C1C3(C)C)[C@]1(OC(C)=O)CO[C@@H]1C[C@@H]2O [PACLITAXEL] | 3.2% | 3.6% | 0.3 µM | 6.1% | 1.7%
CC(=O)O[C@@]12CO[C@@H]1C[C@H](O)[C@@]1(C)C(=O)[C@H](OC(=O)CCc3cccc(C(=O)c4ccccc4)c3)C3=C(C)C(OC(=O)[C@H](O)[C@@H](NC(=O)c4ccccc4)c4ccccc4)C[C@@](O)([C@@H](OC(=O)c4ccccc4)C12)C3(C)C (stereo not given in full) | 40.8% | 40.8% | 1.54 µM | 32.8% | 20.7%
CC(=O)O[C@H]1C(=O)[C@@]2(C)C([C@H](OC(=O)c3ccccc3)[C@]3(O)CC(OC(=O)[C@H](O)[C@@H](NC(=O)c4ccccc4)c4ccccc4)C(C)=C1C3(C)C)[C@]1(OC(C)=O)CO[C@@H]1C[C@@H]2OC(=O)CCc1cccc(C(=O)c2ccccc2)c1 (stereo not given in full) | 6.5% | 13% | 0.45 µM | 8.8% | 2.4%
